Test results: patent US11945822B2, “Pyrazolo-triazine and/or pyrazolo-pxrimidine derivatives as selective inhibitor of cyclin dependent kinase” (QURIENT CO., LTD., priority 2018, dated 2024)

Biological target: T1, CDK2/Cyclin A (Homo sapiens, UniProt P24941)
T1 construct: purchased Invitrogen PV6290
Experiment: Enzymatic assay for CDK2 (FRET based LANCE Ultra kinase assay)
Type: biochemical
Conditions: read-out: CDK2 enzymatic activity (IC50 range)
Procedure, shortened: (§1)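 TR-FRET (LANCE Ultra) kinase assay at ATP Km, ULight-MBP peptide substrate (68 nM), 8-dose 4-fold compound series in DMSO. Enzymes: […]; 60 min at 23° C., stopped with EDTA plus Eu-anti-phospho-MBP antibody, read 665/615 nm after 60 min.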

IC50 [µM] | SMILES
> 1 | CC(C)c1cnn2c(NCc3ccccc3-c3nccc4cc(NC(=O)CCCN(C)C)ccc34)nc(N3CCC(N)CC3)nc12 [Compound 92]
< 0.1 | CC(C)c1cnn2c(NCc3cccc4c3N(C)C(=O)CC4)nc(N3CCC(N)CC3)nc12 [Compound 69]

Continued, compound first:

SMILES | IC50 [µM]
CC(C)c1cnn2c(NCc3ccccc3N3CCCC3)nc(N3CCC(N)CC3)nc12 [Compound 54] | 0.1 to 1
CC(C)c1cnn2c(NCc3ccccc3-c3cccs3)nc(N3CCC(N)CC3)nc12 [Compound 44] | 0.1 to 1

Tested on: MV4-11
Experiment: Cellular MV4-11 viability assay (CellTiter-Glo, 72 hours)
Type: cell-based
Conditions: Homo sapiens
Procedure, shortened: (§2)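 CellTiter-Glo luminescence read in duplicate after 72 h compound exposure (37 °C, 5% CO2); DMSO-only control, final DMSO under 0.1%.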

IC50 [µM] | SMILES
< 1 | CC(C)c1cnn2c(NCc3ccccc3-c3cc4cccc(F)c4[nH]3)nc(N3CCC(N)CC3)nc12 [Compound 113]
< 1 | CC(C)c1cnn2c(NCc3ccccc3-c3nccc4cc(NC(=O)CCCN(C)C)ccc34)nc(N3CCC(N)CC3)nc12 [Compound 92]

Tested on: RPMI-8226
Experiment: Cellular RPMI-8226 viability assay (CellTiter-Glo, 72 hours)
Type: cell-based
Conditions: Homo sapiens
Procedure, shortened: as §2

IC50 [µM] | SMILES
< 1 | CC(C)c1cnn2c(NCc3ccccc3-c3cc4cccc(F)c4[nH]3)nc(N3CCC(N)CC3)nc12 [Compound 113]
1 to 10 | CC(C)c1cnn2c(NCc3ccccc3-c3nccc4cc(NC(=O)CCCN(C)C)ccc34)nc(N3CCC(N)CC3)nc12 [Compound 92]
< 1 | CC(C)c1cnn2c(NCc3cccc4c3N(C)C(=O)CC4)nc(N3CCC(N)CC3)nc12 [Compound 69]

More lines, now with the values behind:

SMILES | IC50 [µM]
CC(C)c1cnn2c(NCc3ccccc3N3CCCC3)nc(N3CCC(N)CC3)nc12 [Compound 54] | 1 to 10
CC(C)c1cnn2c(NCc3ccccc3-c3cccs3)nc(N3CCC(N)CC3)nc12 [Compound 44] | < 1

Tested on: MOLT-4
Experiment: Cellular MOLT-4 viability assay (CellTiter-Glo, 72 hours)
Type: cell-based
Conditions: Homo sapiens, MOLT4 viability assay
Procedure, shortened: as §2

IC50 [µM] | SMILES
< 1 | CC(C)c1cnn2c(NCc3ccccc3-c3cc4cccc(F)c4[nH]3)nc(N3CCC(N)CC3)nc12 [Compound 113]
> 10 | CC(C)c1cnn2c(NCc3ccccc3-c3nccc4cc(NC(=O)CCCN(C)C)ccc34)nc(N3CCC(N)CC3)nc12 [Compound 92]
1 to 10 | CC(C)c1cnn2c(NCc3cccc4c3N(C)C(=O)CC4)nc(N3CCC(N)CC3)nc12 [Compound 69]

Second part, the compound before the results:

SMILES | IC50 [µM]
CC(C)c1cnn2c(NCc3ccccc3N3CCCC3)nc(N3CCC(N)CC3)nc12 [Compound 54] | 1 to 10
CC(C)c1cnn2c(NCc3ccccc3-c3cccs3)nc(N3CCC(N)CC3)nc12 [Compound 44] | 1 to 10

Biological target: T2, CDK1/Cyclin B (Homo sapiens, UniProt P06493)
T2 construct: purchased Invitrogen PR4768C
T2 sequence (P06493 whole entry): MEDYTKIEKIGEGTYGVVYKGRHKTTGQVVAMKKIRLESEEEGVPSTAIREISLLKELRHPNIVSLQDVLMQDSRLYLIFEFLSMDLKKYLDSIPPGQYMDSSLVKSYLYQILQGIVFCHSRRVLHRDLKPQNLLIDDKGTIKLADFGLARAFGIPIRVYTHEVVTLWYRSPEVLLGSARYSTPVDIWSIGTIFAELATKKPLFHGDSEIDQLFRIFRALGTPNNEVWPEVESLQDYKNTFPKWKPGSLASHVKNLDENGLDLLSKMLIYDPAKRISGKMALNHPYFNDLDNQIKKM
T2 sequence (P14635 whole entry partner): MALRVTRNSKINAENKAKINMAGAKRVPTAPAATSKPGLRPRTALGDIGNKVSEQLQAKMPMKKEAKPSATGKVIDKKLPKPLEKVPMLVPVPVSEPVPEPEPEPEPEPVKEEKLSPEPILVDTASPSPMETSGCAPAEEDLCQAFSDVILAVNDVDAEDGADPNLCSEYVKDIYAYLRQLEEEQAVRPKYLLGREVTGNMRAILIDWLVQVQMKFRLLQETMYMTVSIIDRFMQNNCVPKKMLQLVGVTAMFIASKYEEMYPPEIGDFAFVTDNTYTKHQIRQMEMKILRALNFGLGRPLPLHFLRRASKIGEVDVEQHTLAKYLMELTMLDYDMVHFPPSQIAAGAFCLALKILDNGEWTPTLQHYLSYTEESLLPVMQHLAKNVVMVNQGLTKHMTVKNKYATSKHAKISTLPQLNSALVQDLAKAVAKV
Experiment: Enzymatic assay for CDK1 (FRET based LANCE Ultra kinase assay)
Type: biochemical
Conditions: read-out: CDK1 enzymatic activity (IC50 range)
Procedure, shortened: as §1

IC50 [µM] | SMILES
> 1 | CC(C)c1cnn2c(NCc3ccccc3-c3nccc4cc(NC(=O)CCCN(C)C)ccc34)nc(N3CCC(N)CC3)nc12 [Compound 92]
0.1 to 1 | CC(C)c1cnn2c(NCc3cccc4c3N(C)C(=O)CC4)nc(N3CCC(N)CC3)nc12 [Compound 69]

Further lines, the compound ahead of its results:

SMILES | IC50 [µM]
CC(C)c1cnn2c(NCc3ccccc3N3CCCC3)nc(N3CCC(N)CC3)nc12 [Compound 54] | > 1
CC(C)c1cnn2c(NCc3ccccc3-c3cccs3)nc(N3CCC(N)CC3)nc12 [Compound 44] | 0.1 to 1

Biological target: T3, CDK5/p25 (Homo sapiens, UniProt Q00535)
T3 construct: purchased Invitrogen PR8543B
T3 sequence (Q00535 whole entry): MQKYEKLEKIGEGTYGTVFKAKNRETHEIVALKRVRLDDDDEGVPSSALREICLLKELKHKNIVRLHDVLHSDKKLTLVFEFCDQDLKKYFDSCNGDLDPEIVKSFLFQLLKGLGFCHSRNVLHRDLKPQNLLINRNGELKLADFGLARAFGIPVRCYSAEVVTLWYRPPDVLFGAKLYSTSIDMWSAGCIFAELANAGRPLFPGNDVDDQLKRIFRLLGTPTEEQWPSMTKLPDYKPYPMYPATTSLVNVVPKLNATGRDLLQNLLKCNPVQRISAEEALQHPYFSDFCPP
T3 sequence (Q15078 99-307 partner limits assumed): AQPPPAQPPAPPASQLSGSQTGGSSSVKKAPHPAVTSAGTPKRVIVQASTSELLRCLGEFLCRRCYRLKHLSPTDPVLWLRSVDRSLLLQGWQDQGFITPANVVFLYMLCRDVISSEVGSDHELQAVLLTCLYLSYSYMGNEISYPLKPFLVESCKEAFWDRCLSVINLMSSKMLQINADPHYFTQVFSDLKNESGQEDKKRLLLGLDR
Experiment: Enzymatic assay for CDK5 (FRET based LANCE Ultra kinase assay)
Type: biochemical
Conditions: read-out: CDK5 enzymatic activity (IC50 range)
Procedure, shortened: as §1

IC50 [µM] | SMILES
> 1 | CC(C)c1cnn2c(NCc3ccccc3-c3nccc4cc(NC(=O)CCCN(C)C)ccc34)nc(N3CCC(N)CC3)nc12 [Compound 92]
< 0.1 | CC(C)c1cnn2c(NCc3cccc4c3N(C)C(=O)CC4)nc(N3CCC(N)CC3)nc12 [Compound 69]

Further lines, the compound ahead of its results:

SMILES | IC50 [µM]
CC(C)c1cnn2c(NCc3ccccc3N3CCCC3)nc(N3CCC(N)CC3)nc12 [Compound 54] | 0.1 to 1
CC(C)c1cnn2c(NCc3ccccc3-c3cccs3)nc(N3CCC(N)CC3)nc12 [Compound 44] | < 0.1

Tested on: H460
Experiment: Cellular H460 viability assay (CellTiter-Glo, 72 hours)
Type: cell-based
Conditions: Homo sapiens, NCI-H460
Procedure, shortened: as §2

IC50 [µM] | SMILES
< 1 | CC(C)c1cnn2c(NCc3ccccc3-c3cc4cccc(F)c4[nH]3)nc(N3CCC(N)CC3)nc12 [Compound 113]
< 1 | CC(C)c1cnn2c(NCc3cccc4c3N(C)C(=O)CC4)nc(N3CCC(N)CC3)nc12 [Compound 69]

Second part, the compound before the results:

SMILES | IC50 [µM]
CC(C)c1cnn2c(NCc3ccccc3N3CCCC3)nc(N3CCC(N)CC3)nc12 [Compound 54] | < 1
CC(C)c1cnn2c(NCc3ccccc3-c3cccs3)nc(N3CCC(N)CC3)nc12 [Compound 44] | < 1

Biological target: T4, CDK7/Cyclin H/MNAT1 (Homo sapiens, UniProt P50613)
T4 construct: purchased Invitrogen PR6749B
T4 sequence (P50613 whole entry): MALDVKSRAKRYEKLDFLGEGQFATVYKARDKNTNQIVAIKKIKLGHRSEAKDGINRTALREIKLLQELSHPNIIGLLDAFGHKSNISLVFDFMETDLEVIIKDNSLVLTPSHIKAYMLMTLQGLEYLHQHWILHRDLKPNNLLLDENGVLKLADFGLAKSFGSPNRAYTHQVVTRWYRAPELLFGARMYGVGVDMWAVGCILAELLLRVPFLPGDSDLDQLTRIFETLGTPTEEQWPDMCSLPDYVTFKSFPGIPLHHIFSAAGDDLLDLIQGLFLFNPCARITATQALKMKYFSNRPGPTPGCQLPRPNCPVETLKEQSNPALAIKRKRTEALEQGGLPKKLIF
T4 sequence (P51946 whole entry partner): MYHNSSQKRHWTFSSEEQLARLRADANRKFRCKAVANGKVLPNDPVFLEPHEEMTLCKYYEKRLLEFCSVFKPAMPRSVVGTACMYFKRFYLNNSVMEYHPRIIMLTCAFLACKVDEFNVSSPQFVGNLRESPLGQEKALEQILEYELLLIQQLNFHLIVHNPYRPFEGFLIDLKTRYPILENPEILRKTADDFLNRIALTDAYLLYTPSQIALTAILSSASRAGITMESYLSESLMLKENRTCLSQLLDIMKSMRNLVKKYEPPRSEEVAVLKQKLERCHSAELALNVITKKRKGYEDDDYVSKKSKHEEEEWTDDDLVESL
T4 sequence (P51948 whole entry partner): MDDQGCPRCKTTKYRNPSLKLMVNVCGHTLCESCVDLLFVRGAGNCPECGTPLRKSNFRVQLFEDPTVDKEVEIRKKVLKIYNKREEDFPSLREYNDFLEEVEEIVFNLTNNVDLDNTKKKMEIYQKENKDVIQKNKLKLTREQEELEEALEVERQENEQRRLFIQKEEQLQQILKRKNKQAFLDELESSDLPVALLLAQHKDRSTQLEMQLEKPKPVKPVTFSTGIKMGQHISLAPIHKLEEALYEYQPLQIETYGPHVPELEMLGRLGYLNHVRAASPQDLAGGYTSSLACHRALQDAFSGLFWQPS
Experiment: Enzymatic assay for CDK7 (FRET based LANCE Ultra kinase assay)
Type: biochemical
Conditions: CDK7 over CDK1
Procedure, shortened: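 Inhibition was measured at Km ATP by time-resolved FRET between a Eu anti-phospho antibody and a phosphorylated ULight peptide. The enzyme was the purified CDK7/cyclin complex, and data were curve-fitted.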

SMILES | CDK1/CDK7: Selectivity of CDK7 inhibition over CDK1 inhibition
CC(C)c1cnn2c(NCc3ccccc3N3CCCC3)nc(N3CCC(N)CC3)nc12 [Compound 54] | B (B=less than 200 fold, but greater than 20 fold)
CC(C)c1cnn2c(NCc3ccccc3-c3cccs3)nc(N3CCC(N)CC3)nc12 [Compound 44] | B (B=less than 200 fold, but greater than 20 fold)
CC(C)c1cnn2c(NCc3ccccc3-c3nccc4cc(NC(=O)CCCN(C)C)ccc34)nc(N3CCC(N)CC3)nc12 [Compound 92] | A (A=greater than 200 fold)
CC(C)c1cnn2c(NCc3cccc4c3N(C)C(=O)CC4)nc(N3CCC(N)CC3)nc12 [Compound 69] | B (B=less than 200 fold, but greater than 20 fold)

Same assay, conditions: CDK7 over CDK2

SMILES | CDK2/CDK7: Selectivity of CDK7 inhibition over CDK2 inhibition
CC(C)c1cnn2c(NCc3ccccc3N3CCCC3)nc(N3CCC(N)CC3)nc12 [Compound 54] | B (B=less than 200 fold, but greater than 20 fold)
CC(C)c1cnn2c(NCc3ccccc3-c3cccs3)nc(N3CCC(N)CC3)nc12 [Compound 44] | B (B=less than 200 fold, but greater than 20 fold)
CC(C)c1cnn2c(NCc3ccccc3-c3nccc4cc(NC(=O)CCCN(C)C)ccc34)nc(N3CCC(N)CC3)nc12 [Compound 92] | A (A=greater than 200 fold)
CC(C)c1cnn2c(NCc3cccc4c3N(C)C(=O)CC4)nc(N3CCC(N)CC3)nc12 [Compound 69] | B (B=less than 200 fold, but greater than 20 fold)

Same assay, conditions: CDK7 over CDK5

CDK5/CDK7: Selectivity of CDK7 inhibition over CDK5 inhibition | SMILES
A (A=greater than 200 fold) | CC(C)c1cnn2c(NCc3ccccc3-c3nccc4cc(NC(=O)CCCN(C)C)ccc34)nc(N3CCC(N)CC3)nc12 [Compound 92]
C (C=less than 20 fold) | CC(C)c1cnn2c(NCc3cccc4c3N(C)C(=O)CC4)nc(N3CCC(N)CC3)nc12 [Compound 69]

Further lines, the compound ahead of its results:

SMILES | CDK5/CDK7: Selectivity of CDK7 inhibition over CDK5 inhibition
CC(C)c1cnn2c(NCc3ccccc3N3CCCC3)nc(N3CCC(N)CC3)nc12 [Compound 54] | C (C=less than 20 fold)
CC(C)c1cnn2c(NCc3ccccc3-c3cccs3)nc(N3CCC(N)CC3)nc12 [Compound 44] | B (B=less than 200 fold, but greater than 20 fold)

Same assay, conditions: read-out: CDK7 enzymatic activity (IC50 range)

IC50 [µM] | SMILES
< 0.1 | CC(C)c1cnn2c(NCc3ccccc3-c3nccc4cc(NC(=O)CCCN(C)C)ccc34)nc(N3CCC(N)CC3)nc12 [Compound 92]
< 0.1 | CC(C)c1cnn2c(NCc3cccc4c3N(C)C(=O)CC4)nc(N3CCC(N)CC3)nc12 [Compound 69]

The remaining lines, values behind:

SMILES | IC50 [µM]
CC(C)c1cnn2c(NCc3ccccc3N3CCCC3)nc(N3CCC(N)CC3)nc12 [Compound 54] | < 0.1
CC(C)c1cnn2c(NCc3ccccc3-c3cccs3)nc(N3CCC(N)CC3)nc12 [Compound 44] | < 0.1
